Assay results: EP4567040A1, “CRYSTAL FORM OF FUSED TRICYCLIC DERIVATIVE AND PREPARATION METHOD” (Jiangsu Hengrui Pharmaceuticals Co., Ltd., priority 2022, dated 2024)

Experiments:
Type in all cases: physicochemical
[1] = Influencing factor stability study of crystal forms; details: for physical stability / chemical stability: 30-day influencing factor experiments; for chemical stability: high temperature and high humidity conditions
Procedure: Example 50. Influencing Factor Stability Study of Crystal Forms Free-state samples were spread out, left to stand in open flasks, and subjected to 30-day stability tests under light exposure (4500 Lux), high temperature (40 °C and 60 °C), and high humidity (RH 75% and RH 92.5%) conditions.

[2] = Long-term/accelerated stability of crystal forms; details: for Purity%: sealed in aluminum foil bag
Procedure: Free-state samples were sealed in aluminum foil bags and left to stand under 25 °C/60% RH and 40 °C/75% RH conditions to test their stability.

[3] = Hygroscopicity study of free-state crystal forms (DVS); details: for 0.0% RH-80.0% RH (hygroscopicity, mass change): DVS, 25 °C; for Crystal form: crystal form after DVS test
Procedure: Testing was performed using Surface Measurement Systems advantage 2, at 25 °C, with the humidity changing from 50% -95%-0%-95%-50%RH, in steps of 10%. The criterion was that each gradient mass change dM/dT is less than 0.002%, TMAX 360 min, two cycles.
Surface Measurement Systems intrinsic DVS was adopted. At 25 °C, the crystal forms were tested in a humidity range of 0%-95%, with increments of 10%. The criterion was that each gradient mass change dM/dT is less than 0.002%, TMAX 360 min, two cycles.

[4] = Light exposure (4500 Lux), 7 days, open flask
[5] = Light exposure (4500 Lux), 14 days, open flask
[6] = Light exposure (4500 Lux), 30 days, open flask
[7] = 25 °C/60% RH, after standing up to 6 months
[8] = 40 °C/75% RH, after standing up to 6 months
[9] = long-term accelerated conditions for 6 months

SMILES	physical stability [1]	Purity% ([1]; 40 °C, 7 days, open flask)	chemical stability [1]	Purity% ([2]; 25 °C/60% RH, 1 month)	Purity% ([2]; 25 °C/60% RH, 2 months)	Purity% ([2]; 25 °C/60% RH, 3 months)	Purity% ([2]; 25 °C/60% RH, 6 months)	Purity% ([2]; 25 °C/60% RH, 14 days)	Purity% ([2]; 25 °C/60% RH, Initial)	Crystal form [2, 7]	Purity% ([2]; 40 °C/75% RH, 1 month)	Purity% ([2]; 40 °C/75% RH, 2 months)	Purity% ([2]; 40 °C/75% RH, 3 months)	Purity% ([2]; 40 °C/75% RH, 6 months)	Purity% ([2]; 40 °C/75% RH, 14 days)	Purity% ([2]; 40 °C/75% RH, Initial)	Crystal form [2, 8]	0.0% RH-80.0% RH (hygroscopicity, mass change) [3]	Crystal form [3]	physical stability and chemical stability [2, 9]	other results
C[C@H]1COc2c(-c3nc(N[C@@H]4CCOC[C@H]4O)ncc3Cl)cc(F)c3nc(C(C)(C)O)n1c23 [Crystal form D, (3S,4R)-4-((5-chloro-4-((S)-8-fluoro-2-(2-hydroxypropan-2-yl)-3-methyl-3,4-dihydro-5-oxa-1,2a-diazaacenaphthylen-6-yl)pyrimidin-2-yl)amino)tetrahydro-2H-pyran-3-ol]	good physical stability	99.9%	good chemical stability	99.9%	99.9%	99.9%	99.9%	99.9%	99.9%	No change	99.9%	99.9%	99.9%	99.9%	99.9%	99.9%	No change	0.46%	No change	good physical stability and chemical stability	Purity% ([1]; 40 °C, 14 days, open flask): 99.9%; Purity% ([1]; 40 °C, 30 days, open flask): 99.9%; Purity% ([1]; 60 °C, 7 days, open flask): 99.9%; Purity% ([1]; 60 °C, 14 days, open flask): 99.9%; Purity% ([1]; 60 °C, 30 days, open flask): 99.9%; Purity% ([1]; 75% RH, 7 days, open flask): 99.9%; Purity% ([1]; 75% RH, 14 days, open flask): 99.9%; Purity% ([1]; 75% RH, 30 days, open flask): 99.9%; Purity% ([1]; 92.5% RH, 7 days, open flask): 99.9%; Purity% ([1]; 92.5% RH, 14 days, open flask): 99.9%; Purity% ([1]; 92.5% RH, 30 days, open flask): 99.9%; Purity% ([1]; Initial, 0 days): 99.9%; Purity% [1, 4]: 96.0%; Purity% [1, 5]: 94.6%; Purity% [1, 6]: 92.8%
C[C@H]1COc2c(-c3nc(N[C@@H]4CCOC[C@H]4O)ncc3Cl)cc(F)c3nc(C(C)(C)O)n1c23 [Crystal form E, (3S,4R)-4-((5-chloro-4-((S)-8-fluoro-2-(2-hydroxypropan-2-yl)-3-methyl-3,4-dihydro-5-oxa-1,2a-diazaacenaphthylen-6-yl)pyrimidin-2-yl)amino)tetrahydro-2H-pyran-3-ol]	good physical stability	99.9%	good chemical stability	99.9%	99.9%	99.9%	99.9%	99.9%	99.9%	No change	99.9%	99.9%	99.9%	99.9%	99.9%	99.9%	No change	3.45%	No change	good physical stability and chemical stability	Purity% ([1]; 40 °C, 14 days, open flask): 99.8%; Purity% ([1]; 40 °C, 30 days, open flask): 99.8%; Purity% ([1]; 60 °C, 7 days, open flask): 99.9%; Purity% ([1]; 60 °C, 14 days, open flask): 99.9%; Purity% ([1]; 60 °C, 30 days, open flask): 99.9%; Purity% ([1]; 75% RH, 7 days, open flask): 99.9%; Purity% ([1]; 75% RH, 14 days, open flask): 99.8%; Purity% ([1]; 75% RH, 30 days, open flask): 99.8%; Purity% ([1]; 92.5% RH, 7 days, open flask): 99.9%; Purity% ([1]; 92.5% RH, 14 days, open flask): 99.8%; Purity% ([1]; 92.5% RH, 30 days, open flask): 99.8%; Purity% ([1]; Initial, 0 days): 99.9%; Purity% [1, 4]: 99.6%; Purity% [1, 5]: 99.3%; Purity% [1, 6]: 98.7%
C[C@H]1COc2c(-c3nc(N[C@@H]4CCOC[C@H]4O)ncc3Cl)cc(F)c3nc(C(C)(C)O)n1c23 [Crystal form F, (3S,4R)-4-((5-chloro-4-((S)-8-fluoro-2-(2-hydroxypropan-2-yl)-3-methyl-3,4-dihydro-5-oxa-1,2a-diazaacenaphthylen-6-yl)pyrimidin-2-yl)amino)tetrahydro-2H-pyran-3-ol]	good physical stability	–	good chemical stability	99.9%	99.9%	99.9%	99.9%	99.9%	99.9%	No change	99.9%	99.9%	99.9%	99.9%	99.9%	99.9%	No change	1.10%	No change	good physical stability and chemical stability	–

Now from value to compound, other results behind:

physical stability [1]	Purity% ([1]; 40 °C, 7 days, open flask)	chemical stability [1]	Purity% ([2]; 25 °C/60% RH, 1 month)	Purity% ([2]; 25 °C/60% RH, 2 months)	Purity% ([2]; 25 °C/60% RH, 3 months)	Purity% ([2]; 25 °C/60% RH, 6 months)	Purity% ([2]; 25 °C/60% RH, 14 days)	Purity% ([2]; 25 °C/60% RH, Initial)	Crystal form [2, 7]	Purity% ([2]; 40 °C/75% RH, 1 month)	Purity% ([2]; 40 °C/75% RH, 2 months)	Purity% ([2]; 40 °C/75% RH, 3 months)	Purity% ([2]; 40 °C/75% RH, 6 months)	Purity% ([2]; 40 °C/75% RH, 14 days)	Purity% ([2]; 40 °C/75% RH, Initial)	Crystal form [2, 8]	0.0% RH-80.0% RH (hygroscopicity, mass change) [3]	Crystal form [3]	SMILES	physical stability and chemical stability [2, 9]	other results
good physical stability	–	good chemical stability	99.9%	99.9%	99.9%	99.9%	99.9%	99.9%	No change	99.9%	99.9%	99.9%	99.9%	99.9%	99.9%	No change	2.46%	No change	C[C@H]1COc2c(-c3nc(N[C@@H]4CCOC[C@H]4O)ncc3Cl)cc(F)c3nc(C(C)(C)O)n1c23 [Crystal form G, (3S,4R)-4-((5-chloro-4-((S)-8-fluoro-2-(2-hydroxypropan-2-yl)-3-methyl-3,4-dihydro-5-oxa-1,2a-diazaacenaphthylen-6-yl)pyrimidin-2-yl)amino)tetrahydro-2H-pyran-3-ol]	good physical stability and chemical stability	–
good physical stability	–	good chemical stability	99.95%	99.95%	99.95%	–	99.95%	99.95%	–	99.95%	99.95%	99.95%	–	99.95%	99.95%	–	0.28%	No change	C[C@H]1COc2c(-c3nc(N[C@@H]4CCOC[C@H]4O)ncc3Cl)cc(F)c3nc(C(C)(C)O)n1c23 [Crystal form H, (3S,4R)-4-((5-chloro-4-((S)-8-fluoro-2-(2-hydroxypropan-2-yl)-3-methyl-3,4-dihydro-5-oxa-1,2a-diazaacenaphthylen-6-yl)pyrimidin-2-yl)amino)tetrahydro-2H-pyran-3-ol]	–	Crystal form ([2]; 25 °C/60% RH, after standing up to 3 months): No change; Crystal form ([2]; 40 °C/75% RH, after standing up to 3 months): No change; physical stability and chemical stability ([2]; long-term accelerated conditions for 3 months): good physical stability and chemical stability
good physical stability	–	good chemical stability	99.0%	98.9%	–	98.8%	99.0%	99.0%	No change	99.0%	98.9%	–	98.8%	99.0%	99.0%	Deliquescence	–	–	C[C@H]1COc2c(-c3nc(N[C@@H]4CCOC[C@H]4O)ncc3Cl)cc(F)c3nc(C(C)(C)O)n1c23 [Free-state amorphous form, (3S,4R)-4-((5-chloro-4-((S)-8-fluoro-2-(2-hydroxypropan-2-yl)-3-methyl-3,4-dihydro-5-oxa-1,2a-diazaacenaphthylen-6-yl)pyrimidin-2-yl)amino)tetrahydro-2H-pyran-3-ol]	–	Crystal form ([1]; 40 °C, 7 days, open flask): No change; Crystal form ([1]; 40 °C, 14 days, open flask): No change; Crystal form ([1]; 40 °C, 30 days, open flask): No change; Crystal form ([1]; 60 °C, 7 days, open flask): No change; Crystal form ([1]; 60 °C, 14 days, open flask): No change; Crystal form ([1]; 60 °C, 30 days, open flask): No change; Crystal form ([1]; 75% RH, 7 days, open flask): No change; Crystal form ([1]; 75% RH, 14 days, open flask): No change; Crystal form ([1]; 75% RH, 30 days, open flask): No change; Crystal form ([1]; 92.5% RH, 7 days, open flask): No change; Crystal form ([1]; 92.5% RH, 14 days, open flask): No change; Crystal form ([1]; 92.5% RH, 30 days, open flask): No change; Crystal form ([1]; Initial, 0 days): Free-state amorphous form; Crystal form [1, 4]: No change; Crystal form [1, 5]: No change; Crystal form [1, 6]: No change; deliquescence ([2]; accelerated conditions): deliquescence; physical stability and chemical stability ([2]; under other conditions (than those giving deliquescence)): good physical stability and chemical stability
